Patent US20120053076A1, “METHODS FOR IDENTIFICATION” (Cambridge Enterprise Limited, priority 2009, published 2012)

Tests used:
[1] = tested on: TNF-alpha production in response to bacterial endotoxin; experiment: Sub-lethal endotoxemia model, serum TNF-alpha after LPS; format: in vivo; conditions: mouse, serum 2 hours after LPS
Protocol: We selected the sub-lethal endotoxemia model in mouse, because this has been well characterised in our laboratory (see for example Fox et al. (2002) J. Med. Chem. 45:360-70; Fox et al. (2005) J. Med. Chem. 48:867-74). The extent of systemic inflammation in response to a single intraperitoneal injection of bacterial lipopolysaccharide (LPS) can be estimated by measuring serum TNF-alpha 2 hours post challenge.
Methods: Mice (CD1 strain; adult males; 6 per group) were treated with BSCI (in an appropriate vehicle) or with vehicle alone by an appropriate route. […] Simultaneously, one set of mice at each BSCI concentration received BIM 23627 at […] by sub-cutaneous injection (a treatment condition known to suppress classical sstr2-mediated signalling, such as GH release, in rats; Tulipano et al. (2002) 143:1218-24). […]
After, a further 2 hours, the animals were sacrificed by CO2 asphyxiation, and blood was drawn by cardiac puncture. Serum was prepared by conventional methods, and the level of TNF-alpha in serum was measured using an ELISA (R&D Systems; Murine Quantikine code# MTA00) performed in accordance with the manufacturer's instructions. […]

[2] = tested on: rat peripheral blood leukocytes; experiment: Rat chemokine-induced PBMC migration assay; format: cell-based; conditions: Table 3
[3] = tested on: THP-1 cells; experiment: MCP-1 induced THP-1 cell migration, Transwell assay; format: cell-based, human
Protocol: Leukocyte migration was measured using the 96-well format micro Transwell® assay system from Neuroprobe (Gaithersburg, Md., USA). In principle, this assay consists of two chambers separated by a porous membrane. The chemoattractant is placed in the lower compartment and the cells are placed in the upper compartment.
The method was performed essentially as previously described (Reckless & Grainger (1999) Biochem. J. 340:803-11).
First, the cell suspension to be placed in the upper compartment was prepared. The THP-1 cells were pelleted by centrifugation (770×g; 4 mins) and washed with Geys Balanced Salt Solution with 1 mg/ml BSA (GBSS+BSA). This wash was then repeated, and the cells re-pelleted before being resuspended in a small volume of GBSS+BSA for counting, for example using a standard haemocytometer.
The volume of GBSS+BSA was then adjusted depending on the number of cells present so that the cells were at final density of 4.45×10^6 cells per ml of GBSS+BSA. This ensured that there were 100,000 THP-1 cells in each 25 μl of the solution to be placed in the upper chamber of the plate.
The suspension of THP-1 cells at 4.45×10^6 cells/ml was divided into three pots. […] To the second pot, the BSCI was added at the same concentration as in the first pot, but additionally the sstr2 antagonist was also added (for example BIM 23454 [Tulipano et al. (2002) 143:1218-24] or BIM 23627 were added at 66 nM final concentration from a stock solution in GBSS). To the third pot, GBSS+BSA plus vehicle as appropriate was added so that the volumes in three pots are equal, acting as a control.
Next, the chemoattractant solution to be placed in the lower compartment was prepared. MCP-1 was diluted in GBSS+BSA to give a final concentration of 25 ng/ml (after all additions). Note that, as recommended by Frow et al (Med. Res. Rev. 24:276-98) this is the concentration of MCP-1 which induces maximal migration in this system. This solution was divided into three pots, as for the cell suspension. To one pot, the BSCI was added to the same final concentration as was added to the cell suspension, in the second pot the BSCI and the sstr2 antagonist were both added at the same concentration as previously added to the cell suspension, while to the remaining pot GBSS+BSA plus vehicle as appropriate was added so that the volumes in the three pots were equal.
Once the chemoattractant solutions for the lower wells and cell solutions for the upper chambers were prepared, the migration chamber was assembled. 29 μl of the appropriate chemoattractant solution was placed into the lower well of the chamber. Assays were performed with at least triplicate determinations of each condition. Once all the lower chambers were filled, the porous membrane was applied to the chamber in accordance with the manufacturer's instructions. Finally, 25 μl of the appropriate cell solution was applied to each upper chamber. A plastic lid was placed over the entire apparatus to prevent evaporation.
The assembled chamber was incubated at 37° C., 5% CO2, for 2 hours.
At the end of the incubation, the liquid cell suspension was gently removed from the upper chamber, 20 μl of ice-cold 20 mM EDTA in PBS was added to the upper chamber, and the apparatus was incubated at 4° C. for 15 mins. This procedure caused any cells adhering to the underside of the membrane to fall into the lower chamber.
After this incubation the filter was carefully flushed with GBSS+BSA to wash off the EDTA, and then the filter was removed.
The number of cells migrated into the lower chamber under each condition can then be determined by a number of methods, including direct counting, labelling with fluorescent or radioactive markers or through the use of a vital dye. Typically, we utilised the vital dye MTT.

Molecule | Inhibition of TNF-alpha production in response to endotoxin, in words [1] | Emax ([2]; Rattus norvegicus, Leukocyte, read-out: Rat chemokine-induced PBMC migration assay Max effect) | Emax ([3]; Homo sapiens, THP-1, read-out: Human chemokine-induced THP-1 migration assay Max effect) | Inhibition of MCP-1 induced THP-1 cell migration, in words ([3]; MCP-1 25 ng/ml) | Rat chemokine-induced PBMC migration assay Max effect [2] | Human chemokine-induced THP-1 migration assay Max effect ([3]; Table 3) | Chemokine-induced THP-1 cell migration assay (“BSCI” target) Max Effect ([3]; Table 5)
CC(C)(C)C(=O)N[C@H]1CCCNC1=O [Valerolactam, (S)-3-(2′,2′-dimethylpropionoylamino)-tetrahydropyridin-2-one] | dramatically inhibited | 100% | 100% | inhibits MCP-1 induced cell migration in a dose-dependent manner |  |  | 
(S)-3-(2′,2′-dimethyldodecanoyl)amino-caprolactam [BN83250] | dramatically inhibited |  |  |  | 100% | 100% | 100%
